Laboratory results reported in the supplement of paper PMC10307832.

What was measured:
Assay in all cases: relative viability (nuclei count vs DMSO), 5 days (fraction); higher = more cells survive
Vandetanib + Luminespib = compound: COc1cc2/c(=N/c3ccc(Br)cc3F)nc[nH]c2cc1OCC1CCN(C)CC1 [Vandetanib] + CCNC(=O)c1noc(-c2cc(C(C)C)c(O)cc2O)c1-c1ccc(CN2CCOCC2)cc1 [Luminespib] (partner 0.01 µM)
In short: (§1)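 A single step with final 0.05% Triton X-100, 1% formaldehyde and 1 ug/ml Hoechst fixed the cells and stained nuclei 5 days after treatment. Lung cancer cell lines in 1536-well plates had been treated by pin tool the day after seeding with one drug alone or a fixed anchor-drug dose plus five library-drug doses (not always all listed) in √10 steps, and nuclei were counted on 4× images. Relative viability is the ratio of nuclei in treated wells to nuclei in vehicle wells, taken as the median of duplicate plates.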

[1] = compound: C1=CC=C2C(=C1)N=C(S2)C(C#N)C3=NC(=NC=C3)NCCC4=CN=CC=C4 + N=C(N)NC(=N)NCCc1ccccc1 [Phenformin] (partner 250 µM)
In short: as §1

Vandetanib + Bortezomib = compound: COc1cc2/c(=N/c3ccc(Br)cc3F)nc[nH]c2cc1OCC1CCN(C)CC1 [Vandetanib] + CC(C)C[C@H](NC(=O)[C@H](Cc1ccccc1)NC(=O)c1cnccn1)B(O)O [Bortezomib] (partner 0.002 µM)
In short: as §1

CUDC-101 + Crizotinib = compound: C#Cc1cccc(Nc2ncnc3cc(OC)c(OCCCCCCC(=O)NO)cc23)c1 [CUDC-101] + C[C@@H](Oc1cc(-c2cnn(C3CCNCC3)c2)cnc1N)c1c(Cl)ccc(F)c1Cl [Crizotinib] (partner 1 µM)
In short: as §1

UMC-11 was tested. Which relative viability (Vandetanib + Luminespib; first compound 0.02 µM) did it give?
The relative viability was 1.06.

What about the relative viability (Vandetanib + Luminespib; first compound 0.06325 µM) of the same cell line?
Its relative viability is 1.01.

What about the relative viability (Vandetanib + Luminespib; first compound 0.2 µM) of the same cell line?
The relative viability was 0.225.

What about the relative viability (Vandetanib + Luminespib; first compound 0.6325 µM) of the same cell line?
Its relative viability is 0.998.

And the relative viability (Vandetanib + Luminespib; first compound 2 µM)?
The relative viability was 1.03.

What about the relative viability ([1]; first compound 0.005 µM) of the same cell line?
The relative viability was 0.3.

What about the relative viability ([1]; first compound 0.01581 µM) of the same cell line?
The relative viability was 0.315.

And the relative viability ([1]; first compound 0.05 µM)?
The relative viability was 0.32.

What about the relative viability ([1]; first compound 0.1581 µM) of the same cell line?
The relative viability was 0.325.

And the relative viability ([1]; first compound 0.5 µM)?
Its relative viability is 0.336.

What about the relative viability (Vandetanib + Bortezomib; first compound 0.02 µM) of the same cell line?
Its relative viability is 0.743.

And the relative viability (Vandetanib + Bortezomib; first compound 0.06325 µM)?
The relative viability was 0.708.

And the relative viability (Vandetanib + Bortezomib; first compound 0.2 µM)?
Its relative viability is 0.61.

What about the relative viability (Vandetanib + Bortezomib; first compound 0.6325 µM) of the same cell line?
The relative viability was 0.725.

And the relative viability (Vandetanib + Bortezomib; first compound 2 µM)?
The relative viability was 0.746.

And the relative viability (CUDC-101 + Crizotinib; first compound 0.01 µM)?
Its relative viability is 0.67.

What about the relative viability (CUDC-101 + Crizotinib; first compound 0.03162 µM) of the same cell line?
The relative viability was 0.577.

And the relative viability (CUDC-101 + Crizotinib; first compound 0.1 µM)?
The relative viability was 0.404.

What about the relative viability (CUDC-101 + Crizotinib; first compound 0.3162 µM) of the same cell line?
Its relative viability is 0.215.

And the relative viability (CUDC-101 + Crizotinib; first compound 1 µM)?
The relative viability was 0.136.
